# Values joined by “and” are separate entries in the source; they are usually repeats but may differ in a detail not shown here. Identical values can stand only once. Numbers after ± are expanded uncertainties.
# Settings: Liquid; for vapor or sublimation pressure: Closed cell (Static) method; for mass density: Pycnometric method
Compound,vapor or sublimation pressure (300 K),mass density (300 K),vapor or sublimation pressure (310 K),mass density (310 K),vapor or sublimation pressure (320 K),mass density (320 K),vapor or sublimation pressure (330 K),mass density (330 K),vapor or sublimation pressure (340 K),mass density (340 K),vapor or sublimation pressure (350 K),mass density (350 K),vapor or sublimation pressure (360 K),mass density (360 K),vapor or sublimation pressure (370 K),mass density (370 K),vapor or sublimation pressure (380 K),mass density (380 K),also measured
"F/C=C/C(F)(F)F [trans-1,3,3,3-tetrafluoropropene]",526.8 ± 1.4 kPa and 526.6 ± 1.4 kPa,1157.7 ± 1 kg/m3 and 1158 ± 1 kg/m3,703.2 ± 1.6 kPa and 702.4 ± 1.6 kPa,1122.8 ± 1 kg/m3,919.6 ± 2 kPa and 919 ± 2 kPa,1085.1 ± 1 kg/m3,1182.6 ± 2.5 kPa and 1182.3 ± 2.5 kPa,1045.3 ± 1 kg/m3 and 1044.7 ± 1 kg/m3,1498.4 ± 3 kPa and 1498.6 ± 3 kPa,1000.9 ± 1 kg/m3 and 1001.5 ± 1 kg/m3,1874 ± 3.7 kPa and 1874.1 ± 3.7 kPa,950.3 ± 1.1 kg/m3 and 950.6 ± 1.1 kg/m3,2318 ± 4.5 kPa and 2319.2 ± 4.5 kPa,889.8 ± 1.1 kg/m3,2841.4 ± 5.5 kPa and 2842.7 ± 5.5 kPa,810.1 ± 1.3 kg/m3,3460 ± 6.4 kPa and 3461.5 ± 6.4 kPa,668.8 ± 1.5 kg/m3 and 670.4 ± 1.5 kg/m3,–
"F/C=C\C(F)(F)F [(Z)-1,3,3,3-tetrafluoro-1-propene]",185.9 ± 0.8 kPa and 186.4 ± 0.8 kPa,1218.6 ± 1 kg/m3 and 1219.2 ± 1 kg/m3,260.4 ± 0.9 kPa and 260.6 ± 0.9 kPa,1191.2 ± 1 kg/m3,355.3 ± 1 kPa and 355.1 ± 1 kPa,1162 ± 1 kg/m3 and 1163.5 ± 1 kg/m3,473.3 ± 1.2 kPa and 473.5 ± 1.2 kPa,1132.5 ± 1 kg/m3 and 1131.5 ± 1 kg/m3,619 ± 1.4 kPa and 619.2 ± 1.4 kPa,1100.2 ± 1 kg/m3 and 1101.7 ± 1 kg/m3,795.2 ± 1.7 kPa and 794.7 ± 1.7 kPa,1066.1 ± 1 kg/m3 and 1067.3 ± 1 kg/m3,1007.3 ± 2 kPa,1032.6 ± 1 kg/m3 and 1032.3 ± 1 kg/m3,1258.9 ± 2.5 kPa and 1258.7 ± 2.5 kPa,993 ± 1 kg/m3 and 993.3 ± 1 kg/m3,1554.1 ± 3 kPa and 1556.9 ± 3 kPa,951.5 ± 1 kg/m3 and 949.7 ± 1 kg/m3,vapor or sublimation pressure (390 K): 1903.6 ± 3.6 kPa and 1903.7 ± 3.6 kPa; mass density (390 K): 900.5 ± 1.1 kg/m3 and 901.4 ± 1.1 kg/m3; vapor or sublimation pressure (400 K): 2308.3 ± 4.2 kPa and 2308.8 ± 4.2 kPa; mass density (400 K): 843.9 ± 1.1 kg/m3 and 843.6 ± 1.1 kg/m3

# Reference: the NIST ThermoML archive (doi:10.1021/acs.jced.5b01039)
